Common to all, as to assay: in vitro antifungal activity, broth and agar testing techniques
Holding throughout (type): cell-based

The subject of test [1] is Trichophyton schoenleinii. From the text: (§1) The compounds of this invention are useful as antifungal agents.
Test [2] concerns Trichophyton mentagrophytes.
Source text: as §1

Another test relates to Candida albicans. The conditions noted are these: for inhibitory activity: in vitro; for MIC: one range stated jointly for Examples 5, 6 and 10 and the three fungi, read-out: minimum inhibitory concentration MIC.
Source text: as §1

A further test relates to Trichophyton tonsurans.
Source text: as §1

The next test concerns Epidermophyton floccosum.
Source text: as §1

Another test relates to Aspergilius fumigatus. The conditions noted are these: for activity: in vitro; for MIC: one range stated jointly for Examples 5, 6 and 10 and the three fungi, read-out: minimum inhibitory concentration MIC.
Source text: as §1

The next test deals with Trichophyton rubrum. The conditions noted are these: for activity: in vitro; for MIC: one range stated jointly for Examples 5, 6 and 10 and the three fungi, read-out: minimum inhibitory concentration MIC.
Source text: as §1

Experimental findings from patent publication EP0287819A1, “5-(phenyl or phenoxyalkyl)-3-(2-furanyl or 2-thienyl)-3-(1H-imidazol-1-ylmethyl)-2-methylisoxazolidines” (FISONS CORPORATION, priority 1987, dated 1988) are described below.

Structures are written as SMILES. ≈ marks a conversion by molar mass, not a printed value.

`CN1OC(COc2ccc(Cl)cc2)CC1(Cn1ccnc1)c1ccco1` (single isomer, unassigned) [Example 3, 5-(4-Chlorophenoxymethyl)-3-(2-furanyl)-3-(1H-imidazol-1-ylmethyl)-2-methylisoxazolidine]: the inhibitory activity entry (in test [1]; in test [2]; with Candida albicans; in the test on Trichophyton tonsurans; in the test with Epidermophyton floccosum) was “good to moderate” throughout.

With `CN1OC(c2ccc(Cl)cc2)CC1(Cn1ccnc1)c1cccs1` (single isomer, unassigned) [Example 6, 5-(4-Chlorophenyl)-3-(1H-imidazol-1-ylmethyl)-2-methyl-3-(2-thienyl)isoxazolidine], the inhibitory activity entry in the test with Candida albicans is listed as “good to moderate”. The MIC with Candida albicans, in the test on Aspergilius fumigatus and with Trichophyton rubrum was 0.2 to 70 µg/mL (≈ 0.556 to 195 µM) in each case. Also, the activity entry in the test on Aspergilius fumigatus and with Trichophyton rubrum was “good to moderate” each time.

For `Cc1ccc(SCC2CC(Cn3ccnc3)(c3cccs3)N(C)O2)cc1` (single isomer, unassigned) [Example 10, 3-(1H-Imidazol-1-ylmethyl)-2-methyl-5-[[(4-methylphenyl)thio]methyl]-3-(2-thienyl)isoxazolidine], in the test with Candida albicans, the inhibitory activity entry is “good to moderate” and the MIC fell in the range of 0.2 to 70 µg/mL (≈ 0.519 to 182 µM). In the test with Aspergilius fumigatus, the activity result is “good to moderate” and the MIC is 0.2 to 70 µg/mL (≈ 0.519 to 182 µM). Also, in the test on Trichophyton rubrum, the activity entry is given as “good to moderate” and the MIC is 0.2 to 70 µg/mL (≈ 0.519 to 182 µM).

`CN1OC(c2ccc(Cl)cc2)CC1(Cn1ccnc1)c1ccco1` (single isomer, unassigned) [Example 1, 5-(4-Chlorophenyl)-3-(2-furanyl)-3-(1H-imidazol-1-ylmethyl) -2-methylisoxazolidine]: the inhibitory activity entry (in test [1]; in test [2]; in the test with Candida albicans; in the test with Trichophyton tonsurans; in the test with Epidermophyton floccosum) was “good to moderate” throughout.

In the case of `CN1OC(c2ccccc2)CC1(Cn1ccnc1)c1cccs1` (single isomer, unassigned) [Example 5, 3-(1H-Imidazol-1-ylmethyl)-2-methyl-5-phenyl-3-(2-thienyl)isoxazolidine], in the test with Candida albicans, the inhibitory activity entry was “good to moderate” and the MIC lay within 0.2 to 70 µg/mL (≈ 0.615 to 215 µM). Moreover, in the test with Aspergilius fumigatus, the activity result was “good to moderate” and the MIC lay in the range of 0.2 to 70 µg/mL (≈ 0.615 to 215 µM). Moreover, in the test with Trichophyton rubrum, the activity entry is reported as “good to moderate” and the MIC lay within 0.2 to 70 µg/mL (≈ 0.615 to 215 µM).
